Assay results published in PMC10272180, “Ancient medicinal plant rosemary contains a highly efficacious and isoform-selective KCNQ potassium channel opener” (Communications Biology, 2023).

What was measured:
[1] = molecular target: KCNQ3* (KCNQ3-A315T) (Homo sapiens, UniProt O43525, A315T); assay: TEVC of KCNQ3* homomers expressed in Xenopus laevis oocytes; format: cell-based
[2] = molecular target: T1, KCNQ3/5 (Homo sapiens, UniProt O43525+Q9NR82); assay: TEVC of KCNQ3/5 heteromers expressed in Xenopus laevis oocytes; format: cell-based; conditions: 5 µM each substance
T1 construct: expressed in transfected cells; host or cells: Xenopus laevis oocytes co-injected with cRNAs
From the text: (§1) We generated cRNA transcripts encoding human KCNQ1, 2, 3, and 5 (wild-type and mutant) by in vitro transcription using the mMessage mMachine kit (Thermo Fisher Scientific, Waltham, MA, USA) according to manufacturer’s instructions, after vector linearization, from cDNA sub-cloned into expression vectors (pTLNx and pXOOM) incorporating Xenopus laevis β-globin 5’ and 3’ UTRs flanking the coding region to enhance translation and cRNA stability. Mutant KCNQ cDNAs were generated by Genscript (Piscataway, NJ, USA) and cRNAs made as above. We injected defolliculated stage V and VI Xenopus laevis oocytes (Xenoocyte, Dexter, MI, USA) with KCNQ cRNAs (2–10 ng) and incubated the oocytes at 16 °C in ND96 oocyte storage solution containing penicillin and streptomycin, with daily washing, for 2–4 days prior to two-electrode voltage-clamp (TEVC) recording.
(§2) We performed TEVC at room temperature using an OC-725C amplifier (Warner Instruments, Hamden, CT, USA) and pClamp10 software (Molecular Devices, Sunnyvale, CA, USA) 2–4 days after cRNA injection. We placed oocytes in a small-volume oocyte bath (Warner) and viewed them with a dissection microscope for cellular electrophysiology. We sourced chemicals from Sigma-Aldrich (St. Louis, MO, USA) and Combi-Blocks (San Diego, CA, USA). We studied effects of Salvia rosmarinus extracts and of compounds, solubilized directly in bath solution (in mM): 96 NaCl, 4 KCl, 1 MgCl2, 1 CaCl2, 10 HEPES (pH 7.6). We introduced extracts or compounds into the oocyte recording bath by gravity perfusion at a constant flow of 1 ml per minute for 3 min prior to recording. Pipettes were of 1-2 MΩ resistance when filled with 3 M KCl. […] We analyzed data using Clampfit (Molecular Devices) and Graphpad Prism software (GraphPad, San Diego, CA, USA), stating values as mean ± SEM. We plotted raw or normalized tail currents versus prepulse voltage and fitted with a single Boltzmann function:1 g=(A1−A2)/1+exp[V1/2−V/Vs]y+A2 where g is the normalized tail conductance, A1 is the initial value at -∞, A2 is the final value at +∞, V1/2 is the half-maximal voltage of activation and Vs the slope factor. We fitted activation and deactivation kinetics with single exponential functions.

[3] = molecular target: T2, KCNQ2/3 (Homo sapiens, UniProt O43525+O43526); assay: TEVC of KCNQ2/3 heteromers expressed in Xenopus laevis oocytes; format: cell-based
T2 construct: expressed in transfected cells; host or cells: Xenopus laevis oocytes co-injected with cRNAs
From the text: as §1
as §2, with “We” for “We performed TEVC at room temperature using an OC-725C amplifier (Warner Instruments, Hamden, CT, USA) and pClamp10 software (Molecular Devices, Sunnyvale, CA, USA) 2–4 days after cRNA injection. We”

[4] = Solubility limit for testing in bath solution; format: physicochemical
From the text: We performed TEVC at room temperature using an OC-725C amplifier (Warner Instruments, Hamden, CT, USA) and pClamp10 software (Molecular Devices, Sunnyvale, CA, USA) 2–4 days after cRNA injection. We placed oocytes in a small-volume oocyte bath (Warner) and viewed them with a dissection microscope for cellular electrophysiology. We sourced chemicals from Sigma-Aldrich (St. Louis, MO, USA) and Combi-Blocks (San Diego, CA, USA). We studied effects of Salvia rosmarinus extracts and of compounds, solubilized directly in bath solution (in mM): 96 NaCl, 4 KCl, 1 MgCl2, 1 CaCl2, 10 HEPES (pH 7.6). We introduced extracts or compounds into the oocyte recording bath by gravity perfusion at a constant flow of 1 ml per minute for 3 min prior to recording. Pipettes were of 1-2 MΩ resistance when filled with 3 M KCl. We recorded currents in response to voltage pulses between −120 mV and +40 mV at 10 mV intervals from a holding potential of −80 mV, to yield current-voltage relationships and examine activation kinetics. We analyzed data using Clampfit (Molecular Devices) and Graphpad Prism software (GraphPad, San Diego, CA, USA), stating values as mean ± SEM. We plotted raw or normalized tail currents versus prepulse voltage and fitted with a single Boltzmann function:1 g=(A1−A2)/1+exp[V1/2−V/Vs]y+A2 where g is the normalized tail conductance, A1 is the initial value at -∞, A2 is the final value at +∞, V1/2 is the half-maximal voltage of activation and Vs the slope factor. We fitted activation and deactivation kinetics with single exponential functions.

[5] = molecular target: KCNQ2 (Homo sapiens, UniProt O43526); assay: TEVC of KCNQ2 homomers expressed in Xenopus laevis oocytes; format: cell-based
From the text: as §1, §2

[6] = 5 µM each substance, table head prints KCNQ3*, text says KCNQ3/5

Chain of KCNQ3* (KCNQ3-A315T) (O43525 whole entry A315T): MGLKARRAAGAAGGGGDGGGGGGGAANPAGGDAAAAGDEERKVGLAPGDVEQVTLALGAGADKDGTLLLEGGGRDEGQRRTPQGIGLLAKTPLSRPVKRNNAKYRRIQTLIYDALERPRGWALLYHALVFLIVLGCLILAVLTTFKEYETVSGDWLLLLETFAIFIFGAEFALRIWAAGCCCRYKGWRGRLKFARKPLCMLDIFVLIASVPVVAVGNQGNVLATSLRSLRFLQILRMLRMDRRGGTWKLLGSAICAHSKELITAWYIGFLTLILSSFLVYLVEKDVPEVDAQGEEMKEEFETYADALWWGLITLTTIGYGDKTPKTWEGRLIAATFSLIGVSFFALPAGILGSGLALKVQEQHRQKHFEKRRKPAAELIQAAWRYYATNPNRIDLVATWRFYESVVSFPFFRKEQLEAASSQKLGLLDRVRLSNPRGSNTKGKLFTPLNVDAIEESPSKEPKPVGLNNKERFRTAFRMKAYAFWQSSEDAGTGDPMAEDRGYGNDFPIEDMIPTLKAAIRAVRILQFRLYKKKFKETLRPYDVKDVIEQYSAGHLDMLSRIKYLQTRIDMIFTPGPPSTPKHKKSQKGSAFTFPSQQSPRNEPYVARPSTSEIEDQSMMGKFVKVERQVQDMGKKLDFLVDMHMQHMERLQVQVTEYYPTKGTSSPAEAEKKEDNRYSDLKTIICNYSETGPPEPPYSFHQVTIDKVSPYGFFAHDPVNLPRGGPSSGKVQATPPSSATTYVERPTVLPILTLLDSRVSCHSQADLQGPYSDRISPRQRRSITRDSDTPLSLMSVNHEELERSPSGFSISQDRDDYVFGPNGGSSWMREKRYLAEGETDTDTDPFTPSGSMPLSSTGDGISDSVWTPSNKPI

## C[C@H]1[C@H](C)CC[C@]2(C(=O)O)CC[C@]3(C)C(=CC[C@@H]4[C@@]5(C)CC[C@H](O)C(C)(C)[C@@H]5CC[C@]43C)[C@H]12 [Ursolic acid]
[1]; 100 µM
  Slope: 4.49 ± 0.53 mV

## C1=C2CCCN[C@H]2[C@@H]2C[C@H]1[C@H]1CCCCN1C2 [Aloperine, aloperine, reference compound]
[1]; [6]
  Slope: 6.96 ± 0.67 mV
  V0.5 Normalized tail current: -46.72 ± 0.78 mV
[2]
  channel opening: weak KCNQ3/5 opener

## COC[C@H]1OC(=O)c2coc3c2[C@@]1(C)C1=C(C3=O)[C@@H]2CCC(=O)[C@@]2(C)C[C@H]1OC(C)=O [wortmannin, reference compound]
[1]; wortmannin pretreatment to reduce PIP2
  reduction of KCNQ3* current magnitude: ~ fivefold

## CC(=O)Oc1c(C(C)C)cc2c(c1OC(C)=O)C1(C(=O)O)CCCC(C)(C)C1CC2 (stereo not drawn) [Carnosic acid diacetate]
[1]; 10 µM
  Slope: 5.06 ± 0.63 mV
  V0.5 Normalized tail current: -50.38 ± 0.69 mV
  shift in V0.5act / opening: only weakly negative-shifted
[3]; 10 µM
  Slope: 6.11 ± 0.49 mV
  V0.5 Normalized tail current: -38.43 ± 0.56 mV
  shift in V0.5act / opening: only weakly negative-shifted
[4]; pH 7.6
  solubility (highest testable concentration): solubility issues

## COc1c(C(C)C)cc2c(c1OC)C13CCCC(C)(C)C1CC2OC3=O (stereo not drawn) [Dimethylcarnosol, dimethyl carnosol]
[1]; 100 µM
  Slope: 4.92 ± 0.40 mV
  V0.5 Normalized tail current: -49.25 ± 0.43 mV
[1]; 100 µM, unclamped oocytes
  hyperpolarization of EM: > 8 mV
[3]; 100 µM
  Slope: 6.71 ± 0.64 mV
  V0.5 Normalized tail current: -37.81 ± 0.73 mV

## COc1cc(C(=O)O)cc(OC)c1O [Syringic acid]
[1]; 100 µM
  Slope: 4.92 ± 1.03 mV
  V0.5 Normalized tail current: -49.16 ± 1.21 mV
  V0.5 non-normalized tail current: -51.58 ± 5.36 mV
[3]; 100 µM
  Slope: 5.13 ± 0.75 mV
  V0.5 Normalized tail current: -47.76 ± 0.91 mV
  V0.5 non-normalized tail current: -44.21 ± 2.07 mV

## CC(C)c1cc2c(cc1O)C1(C(=O)O)CCCC(C)(C)C1CC2 (stereo not drawn) [Pisiferic acid, pisiferic acid]
[1]; 100 µM
  Slope: 4.89 ± 0.45 mV
  V0.5 Normalized tail current: -51.70 ± 0.51 mV
  shift in V0.5act: only weakly negative-shifted
[3]; 100 µM
  Slope: 7.44 ± 0.55 mV
  V0.5 Normalized tail current: -42.05 ± 0.63 mV

## COC(=O)[C@]12CCCC(C)(C)[C@@H]1CCc1cc(C(C)C)c(O)c(O)c12 [Methyl carnosate, methyl carnosate]
[1]; 10 µM
  Slope: 4.63 ± 0.74 mV
  V0.5 Normalized tail current: -47.09 ± 0.74 mV
  shift in V0.5act / opening: only a weak activator
[3]; 10 µM
  Slope: 10.46 ± 0.87 mV
  V0.5 Normalized tail current: -34.00 ± 0.97 mV
  shift in V0.5act / opening: did not open
[4]; pH 7.6
  solubility (highest testable concentration): poor solubility

## CC(C)c1cc2c(c(O)c1O)[C@@]13CCCC(C)(C)[C@@H]1C[C@@H]2OC3=O [Carnosol]
[1]; 100 µM
  Slope: 5.00 ± 1.11 mV
  V0.5 Normalized tail current: -61.13 ± 1.28 mV
  shift in V0.5act: −11 mV
[1]; 100 µM (hesperidin 30 µM)
  effect on EM of unclamped oocytes: did not alter
[3]; 100 µM
  Slope: 5.82 ± 0.75 mV
  V0.5 Normalized tail current: -47.80 ± 0.87 mV
  effect on EM of unclamped oocytes: did not alter
  shift in V0.5act: no shift
[5]; 100 µM
  Slope: 3.97 ± 1.31 mV
  V0.5 Normalized tail current: -57.08 ± 1.31 mV
  effect on EM of unclamped oocytes: did not alter

## CC(C)c1cc2c3c(c1O)OC(=O)C31CCCC(C)(C)C1CC2 (stereo not drawn) [Carnosic gamma lactone, carnosic acid γ-lactone]
[1]; 10 µM
  Slope: 4.81 ± 0.56 mV
  V0.5 Normalized tail current: -54.06 ± 0.70 mV
  effect on EM of unclamped oocytes: without hyperpolarizing
  shift in V0.5act / opening: −8.7 mV
[3]; 10 µM
  Slope: 6.78 ± 0.62 mV
  V0.5 Normalized tail current: -40.71 ± 0.71 mV
  effect on EM of unclamped oocytes: without hyperpolarizing
  shift in V0.5act / opening: −10 mV
[5]; 10 µM
  Slope: 6.47 ± 0.40 mV
  V0.5 Normalized tail current: -46.18 ± 0.46 mV
[4]; bath solution
  solubility (highest testable concentration): solubility issues

## COc1ccc([C@@H]2CC(=O)c3c(O)cc(O[C@@H]4O[C@H](CO[C@@H]5O[C@@H](C)[C@H](O)[C@@H](O)[C@H]5O)[C@@H](O)[C@H](O)[C@H]4O)cc3O2)cc1O [Hesperidin, hesperidin]
[1]; 30 µM
  Slope: 4.65 ± 0.46 mV
  V0.5 Normalized tail current: -55.97 ± 0.57 mV
  V0.5 non-normalized tail current: -55.83 ± 1.97 mV
  shift in V0.5act: ~ −10 mV
[1]; 100 µM (hesperidin 30 µM)
  effect on EM of unclamped oocytes: hyperpolarized
[3]; 30 µM
  Slope: 7.73 ± 0.60 mV
  V0.5 Normalized tail current: -48.08 ± 0.71 mV
  V0.5act shift: −10.4 mV
  V0.5 non-normalized tail current: -48.30 ± 2.77 mV
  effect on EM of unclamped oocytes: hyperpolarized
[5]; 30 µM
  channel opening: did not open
[5]; 100 µM
  Slope: 6.54 ± 0.41 mV
  V0.5 Normalized tail current: -45.73 ± 0.48 mV
[4]; oocyte recording bath solution, pH 7.6, aqueous buffer, read-out: solubility (highest testable concentration)
  solubility: ≤ 30 µM

## O=C(O)[C@]1(O)C[C@@H](O)[C@@H](O)[C@H](O)C1 [Quinic acid, quinic acid]
[1]; 100 µM
  Slope: 3.96 ± 0.88 mV
  V0.5 Normalized tail current: -53.04 ± 1.09 mV
  V0.5 non-normalized tail current: -51.87 ± 2.53 mV
  shift in V0.5act: ~ −10 mV
[3]; 100 µM
  Slope: 4.07 ± 0.85 mV
  V0.5 Normalized tail current: -47.87 ± 0.94 mV
  V0.5 non-normalized tail current: -45.78 ± 1.64 mV
